Test results reported in US20210163929A1, “METHODS AND COMPOSITIONS FOR THE TREATMENT OF HEPATIC AND METABOLIC DISEASES” (The Regents of the University of California, priority 2018, published 2021).
“Also recorded” adds a separate entry of the source.

Legend:
miR-22 = conditions: published data; cited from earlier work
[1] = tested on: FGF21 signaling and miR-22 in Huh7 cells; experiment: mRNA and protein levels in Huh7 cells treated with OCA/INT-747, CDCA, butyrate or RA plus butyrate; type: cell-based, human; conditions: CDCA 150 μM
Experimental: (§1) Cell culture: Huh7 cells were obtained from Japanese Collection of Research Bioresources and maintained in DMEM with 10% FBS. Cells were treated with DMSO, OCA (5 or 20 μM; Apexbio Technology LLC, Houston, Tex., USA) in serum-free media for indicated time. Cells were plated (1×10^6 cells per 60-mm dish, 2×10^5 cells per 6-well plates, and 1×10^5 cells per 24-well plates) overnight prior to treatment or infection.
Gene expression quantification: Total RNA was extracted using TRIzol Reagent (Thermo Fisher Scientific, Waltham, Mass., USA), and cDNA was generated using High Capacity RNA-to-cDNA Kit (Applied Biosysterms, Carlsbad, Calif., USA). qRT-PCR was performed on ABI 7900HT Fast Real-time PCR system using Power SYBR® Green PCR Master Mix (Applied Biosysterms).
(§2) Western blot: Western blot was performed as described previously (26). Antibodies used were anti-FGFR1, FGF21, FASN, phosphor (P)-AMPK, total (T)-AMPK, phosphor (P)-ERK1/2, and total (T)-ERK1/2 (Cell Signaling Technology, Beverly, Mass., USA), β-ACTIN (MilliporeSigma), CD36 (Bioss Antibodies Inc., Woburn, Mass., USA), CYCLIN A2, PGC1α (Novus Biologicals, LLC, Littleton, Colo., USA), and PPARα (Santa Cruz Biotechnology, Santa Cruz, Calif., USA).

miR-22 in HCT116 cells [2] = experiment: miR-22 induction in HCT116 cells treated with bile acids or HDAC inhibitors; type: cell-based, human; conditions: CDCA 150 μM
Experimental: A time course study in which HCT116 cells were treated by 150 μM CDCA for indicated times. […] Data are presented as mean+/−S.D. * denotes p<0.05.
Data are shown as mean+/−S.D. * p<0.05; ** p<0.01; ***p<0.001.
OCA is a semi-synthetic bile acid, which as the structure of 6α-ethyl-chenodeoxycholic acid.

miR-22 in HCT116 cells [3] = experiment: as above; type: cell-based, human; conditions: 24 hours, CDCA 50, 100, 150 μM, OCA 25 and 50 μM
[4] = tested on: PPREs in the regulatory region of FGF21; experiment: ChIP-qPCR of PPARα and PGC1α occupancy in Huh7 cells; type: cell-based, human; conditions: miR-22 overexpression
Experimental: Chromatin immunoprecipitation (ChIP)-qPCR: ChIP-qPCR was performed based on a previous publication (27). Briefly, chromatin lysate was precleared before incubation with anti-PGC1α (Novus Biologicals) and anti-PPARα (Santa Cruz Biotechnology). IgG (Santa Cruz Biotechnology) and RNA Polymerase II antibody (MilliporeSigma) was used as negative and positive control, respectively. Samples were incubated with Dynase beads at 4° C. overnight followed by de-crosslinking and purification. DNA fragments generated served as templates for qPCR using Power SYBR Green PCR Master Mix.

[5] = tested on: Western diet-induced steatosis in C57BL/6 mice; experiment: Pilot study in Western diet-fed mice, tail vein adenoviral miR-22 mimics or inhibitors; type: in vivo, mouse
Experimental: Wild type C57BL/6 mice were fed with a high fat and high sucrose (21.2% fat, 34% sucrose, and 0.2% cholesterol) Western diet (WD) since weaning (3 weeks). When mice were 2.5 months old, they received adenoviral-delivery of miR-22 mimics or miR-22 inhibitors (i.e., SEQ ID NO:1) via tail vein injection (1×10^9 PFU/100 μl saline, 3 doses in 10 days). […] In addition, hepatic Pgc1α mRNA level was reduced by miR-22 mimics, but increased by miR-22 inhibitors (FIG. 10).
To further analyze the role miR-22 in regulating hepatic metabolism, we have done pilot studies to test the effect of miR-22 in non-alcoholic and alcoholic steatohepatitis. Steatosis was induced by feeding mice with a WD that has high fat and high sucrose content since weaning (3-weeks old). After 2 months of differential diet feeding, mild steatosis was found in WD-fed mice. Then, those WD-fed mice received adenoviral-control, adenoviral-delivered miR-22 mimics, or miR-22 inhibitors (i.e., SEQ ID NO:1) via tail vein injection (1×10^9 pfu/200 μl, 3 doses, weekly) while continuing a WD. […] These exciting findings indicate that forced miR-22 expression in WD-fed mice potentially can be a novel NASH model.

[6] = tested on: alcohol-induced steatosis in C57BL/6 mice; experiment: Alcohol-induced steatosis in mice treated with adenoviral miR-22 inhibitors; type: in vivo, mouse; conditions: FIG. 29E
Text: We performed another pilot experiment to test the effect of miR-22 inhibitors in reducing alcohol-induced steatosis. The same method described above for FIG. 2C was used to induce steatosis followed by miR-22 inhibitor treatment through tail vein injection.
Additionally, alcohol was used to induce fatty liver. Mice were on Liber DeCarli liquid diet supplemented with 5% alcohol for 3 weeks followed by delivery of adenoviral-control and adenoviral-miR-22 inhibitors using the same methods described above. During the interventions, mice continued having alcohol-supplemented liquid diet.
3-month old WT male mice were fed with Liber DeCarli diet with 5% alcohol supplementation for 3 weeks followed by adenovirus delivery of miR-22 inhibitor (1×10^9PFU) through tail vein injection (3 times in 10 days). The empty adenovirus was used as a negative control. The mice were killed 1 day after the last injection. Steatosis scored was graded on a scale of a scale of 0 (<5%), 1 (5-33%), 2 (34-66%), and 3 (>66%). […]
Biochemical analysis: Hepatic triglyceride and cholesterol (BioAssay Systems, Hayward, Calif., USA) levels and serum lipopolysaccharide (LPS) (Thermo Fisher Scientific), alanine transaminase (ALT) (Pointe Scientific), and alkaline phosphatase (ALP) (Pointe Scientific) levels were quantified according to the manufacturer's instructions.

3′UTR of FGFR1 = experiment: Luciferase reporter assay, psiCHECK2-FGFR1 3′UTR in Huh7 cells; type: cell-based, human; conditions: 48 h infection then reporter transfection
Text: (§3) Constructs and luciferase reporter assay: The 3′ untranslated region (3′-UTR) of the FGFR1 gene containing the putative binding site for miR-22 and the entire 3′-UTR of the FGF21 gene (105 bp) was cloned into the psiCHECK2 vector (Promega, Madison, Wis., USA) using NotI and XhoI. For cell infection, adenovirus (negative control), adenoviral-delivered miR-22 (miR-22), or adenoviral-miR-22 inhibitors (SEQ ID NO:1; Applied Biological Materials Inc., Richmond, BC) were used. Forty-eight h post infection, cells were transfected with psiCHECK2-FGR1-3′UTR or psiCHECK2-FGF21 3′UTR using Lipofectamine 2000 (Thermo Fisher Scientific). Twenty-four h later, cells were harvested for firefly and Renilla luciferase assay using the Dual-luciferase Reporter system (Promega). Renilla luciferase activity was standardized to firefly luciferase activity.

[7] = tested on: HDAC1, HDAC4 and CYCLIN A2 in Huh7 and HCT116 cells; experiment: Deacetylase protein levels after miR-22 in Huh7 and HCT116 cells; type: cell-based, human
[8] = tested on: FGF21 signaling in Huh7 cells; experiment: Huh7 cells infected/transfected with miR-22 or miR-22 inhibitors, mRNA and Western blot; type: cell-based, human
Text: However, miR-22 was induced in the livers and adipose tissues of WD-fed mice (FIG. 15B). Similarly, using human liver biopsy specimens, miR-22 levels were positively associated with hepatic fat content and inversely correlated with the mRNA levels of PGC-1α, a key regulator of mitochondrial biogenesis (FIG. 15C). […] To study the downstream effects of miR-22, miR-22 mimics (ID: MIMAT0000077, […] (SEQ ID NO:2), Applied Biological Materials Inc.) were used to transfect human liver Huh7 cells.
as §1, §3, §2

[9] = tested on: mice after 2/3 liver resection; experiment: 2/3 liver resection in mice given miR-22 inhibitors or mimics; type: in vivo, mouse; conditions: compared to other groups
Experimental: The data presented in FIGS. 38 and 39 further support the usefulness of miR-22 inhibition. For the experiments used to generate the data in FIG. 38, mice received miR-22 inhibitors or miR-22 mimics via tail vein injection 3 days prior to 2/3 liver resection (1×10^9 pfu in 100 μL saline, one injection per day). Mice were killed on day 0 (immediately after liver resection) or 2 days later.

3′UTR of FGF21 = experiment: Luciferase reporter assay, psiCHECK2-FGF21 3′UTR in Huh7 cells; type: cell-based, human; conditions: 48 h infection then reporter transfection
Text: as §3

[10] = WD-fed C57BL/6 mice 2.5 months old, tail vein 1×10^9 PFU/100 μl, 3 doses in 10 days

## C[C@H](CCC(=O)O)[C@H]1CC[C@H]2[C@@H]3[C@H](O)C[C@@H]4C[C@H](O)CC[C@]4(C)[C@H]3CC[C@]12C [CDCA, chenodeoxycholic acid]
miR-22
  miR-22 induction: induced
[1]
  FGF21 and miR-22 levels: induced FGF21 and miR-22 levels
miR-22 in HCT116 cells [2]
  FGF21 and miR-22 levels: induced FGF21 and miR-22 levels
miR-22 in HCT116 cells [3]
  miR-22 level: induced miR-22

## miR-22 mimics: miR-22 mimics (ID: MIMAT0000077, AAGCUGCCAGUUGAAGAACUGU, SEQ ID NO:2), transfected or adenoviral-delivered (chemistry not given here; listed as Homo sapiens)
[4]
  occupancy of PPARα and PGC1α in the two PPREs of FGF21: substantially reduced
[5]; [10]
  hepatic Pgc1α mRNA level: reduced
  hepatic lymphocyte infiltration: induced hepatic lymphocyte infiltration
  severity of steatosis / hepatic fat content: increased the severity of steatosis
[5]; WD-fed mice after 2 months of diet, tail vein 1×10^9 pfu/200 μl, 3 doses, weekly
  liver histology (hepatic fat content, lymphocyte infiltration): increased hepatic fat content and lymphocyte infiltration
[6]
  hepatic gene expression (PGC1α, CPT1, SREBP-1c, FASN, TNFα): reduced PGC1α and CPT1, but increased SREBP-1c, FASN, and TNFα
3′UTR of FGFR1
  luciferase activity driven by FGFR1 3′UTR: decreased the luciferase activity
[7]
  protein level of HDAC1, HDAC4 and CYCLIN A2: reduced the protein level of HDAC1 and HDAC4 as well as CYCLIN A2
[8]
  expression of βKlotho: did not affect the expression of βKlotho
  total AMPK: had no effect on total AMPK
[8]; 48 h post infection
  PPARα and PGC1α protein levels: reduced PPARα and PGC1α
[8]; miR-22 overexpression
  AMPK and ERK1/2 activation (P-AMPK, P-ERK1/2): AMPK and ERK1/2 deactivation
  FGF21 and FGFR1 (SIRT1, p-AMPK) levels: reduced the protein level of FGF21, FGFR1 and p-AMPK; also recorded: reduced the protein level of FGF21, FGFR1, and SIRT1
[8]; miR-22 overexpression, listed as miR-22
  FGF21 and FGFR1 (SIRT1, p-AMPK) levels: reduced FGF21 and FGFR1 at both mRNA and protein levels
[9]
  liver-to-body weight ratio and fat-to-body weight ratio: substantially higher
3′UTR of FGF21
  luciferase activity driven by FGF21 3′UTR: neither miR-22 nor miR-22 inhibitors changed the luciferase activity
